Earlier results in US7220858B2, “Synthesis of hydrazine and chlorinated derivatives of bicyclic pyridazines” (Barbeau Pharma, Inc., priority 2003, dated 2007).
Read-outs that look alike come from different tables or passages of the source.

How the values were obtained:
[1] = in the presence of oxygen and metal ions such as Cu+2, Fe+2, and Fe+3

oxidation [1]: oxidizes rapidly
SMILES: NNc1nncc2ccccc12 [Hydralazine, 1-hydrazinophthalazine]
onset of action (vascular smooth muscle; given intravenously): 10 to 20 min | metabolism and excretion (vascular smooth muscle; in the body): extensively metabolized in the body to products that are excreted predominantly in the urine | duration of action (vascular smooth muscle; in vivo): 3 to 4 h | onset of action (vascular smooth muscle; in vivo): 10 to 30 min | time to maximum hypotensive effect (vascular smooth muscle; in vivo): 10 to 80 min
